PMC10135378, “Synthesis of Novel N-Heterocyclic Carbene-Ruthenium (II) Complexes, “Precious” Tools with Antibacterial, Anticancer and Antioxidant Properties” (Antibiotics, 2023)

Experiments:
[1] = DPPH radical scavenging assay; conditions: 30 min, room temperature, 517 nm
Procedure: Generally, the DPPH radical is able to accept hydrogen radicals or an electron, turning into a stable molecule. The interaction with Ru-NHC complexes induces the reduction of DPPH radical intensity measured at 517 nm, due to the conversion of the purple DPPH radical into its corresponding yellow hydrazine form.
The radical scavenging properties of Ru-NHC complexes on the 1,1-diphenyl-2-picryl-hydrazil (DPPH) radical were evaluated as described by Fazio et al., with minor corrections. Then, 20 μL of each Ru complex, properly dissolved in DMSO, were mixed with methanol DPPH 0.1 mM (180 μL) in a 48-well plate obtaining […] different concentrations (10, 50, 100, 200 and 300 µg/mL). Next, 20 μL of DMSO in 180 μL of DPPH methanol solution was diluted as the control. The mixture was vigorously shaken and incubated (room temperature, 30 min, in the dark). The scavenging activity was measured at 517 nm, using a microplate reader. DPPH radical scavenging was expressed as inhibition percentages (%IDPPH) for the Ru complexes compared to the initial concentration of DPPH (control) according to the formula: %IDPPH=A0−A/A0×100 where A0 is the absorbance at 517 nm of the control reaction and A is the absorbance at 517 nm in the presence of samples.
The obtained IDPPH percentages allowed the IC50 values determination, using GraphPad Prism 9 software (GraphPad Inc., San Diego, CA, USA). Trolox was employed as a positive control.

[2] = test system: Staphylococcus aureus (ATCC 23235); assay: MIC/MBC broth dilution, S. aureus; format: cell-based; conditions: broth dilution, 37 °C, 18 h
Procedure: (§1) One Gram-negative (Escherichia coli (ATCC® 25922TM)) and two Gram-positive bacterial strains (Enterococcus faecalis (ATCC® 19433TM) and Staphylococcus aureus (ATCC® 23235TM)] were used for MIC and MBC values determination, according to CLSI guidelines. MIC represents the lowest concentration of compound inhibiting the visible microbial growth and expressed as μg/mL; MBC is the lowest concentration able to kill the bacteria. Both determinations were performed by the broth dilution method. Bacteria were grown overnight in LB medium (2%), then diluted to a density of […] colony forming units (CFUs) per mL, plated in sterile 96-well microplates, obtaining about 10^5 cells/ well. Increasing concentrations of the Ru-NHC complexes (1, 10, 25, 50, 70, 100 µg/mL) were used. After incubation at 37 °C for 18 h (overnight), bacterial growth was checked at a wavelength of 600 nm using a Multiskan spectrophotometer (model Multiskan Ex Microplate; Thermo Scientific, Nyon, Switzerland) and MIC or MBC values were determined, comparing cell density with a positive control (bacterial cells grown in LB medium were added with only the vehicle, DMSO). Each experiment was carried out five times, in triplicate. Ampicillin (Sigma Aldrich A9393) was used as the control for strain sensitivity.

[3] = test system: Escherichia coli (ATCC 25922); assay: MIC/MBC broth dilution, E. coli; format: cell-based; conditions: broth dilution, 37 °C, 18 h
Procedure: as §1

MCF-10A cells = assay: MTT assay, non-tumoral MCF-10A cells; format: cell-based, human; conditions: 72 h exposure
From the text: Additionally, we investigated the selectivity of all the synthesized Ru-NHC complexes on the cancer cells by studying their capability to interfere with the growth of two non-tumoral cells, namely the MCF-10A and BALB/3T3 cells.
(§2) The adopted cells (breast cancer MCF-7 and MDA-MB-231 and human mammary epithelial MCF-10A cells) were purchased from American Type Culture Collection (ATCC, Manassas, VA, USA) and cultured as indicated. The mouse embryonic fibroblast BALB/3T3 and neuroblastoma SH-SY5Y were also obtained from American Type Culture Collection (ATCC, Manassas, VA, USA) and cultured in DMEM high glucose supplemented with 100 U mL^−1 penicillin/streptomycin and 10% bovine calf serum (BCS) or 10% fetal bovine serum (FBS), respectively.
(§3) MTT assay (Sigma Aldrich (St. Louis, MO, USA)) was used for the in vitro anticancer activity evaluation, as previously reported. The Ru-NHC complexes were employed at different concentrations (0.1–1–10–25–50–100 μM) for 72 h. The IC50 values were calculated from the percent (%) of control using GraphPad Prism 9 (GraphPad Software, La Jolla, CA, USA).

MCF-7 cells = assay: MTT assay, anticancer activity on MCF-7 cells; format: cell-based, human; conditions: 72 h exposure, 0.1-100 µM
Procedure: (§4) The anticancer activity of all the synthesized Ru-NHC complexes (RANHC I-VI) was studied in two human breast cancer cell lines, namely the estrogen receptor positive (ER+) MCF-7 cells and the triple negative MDA-MB-231 cells (ER-, PR-, and HER-2/Neu not overexpressed), and neuroblastoma cells, i.e., SH-SY5Y. First, the cells were exposed for 72 h at different concentrations of the studied complexes (from 0.1 to 100 µM) and then their viability was checked by MTT assay.
as §2, §3

SH-SY5Y cells = assay: MTT assay, anticancer activity on SH-SY5Y neuroblastoma cells; format: cell-based; conditions: 72 h exposure, 0.1-100 µM
Procedure: as §4, §2, §3

MDA-MB-231 cells = assay: MTT assay, anticancer activity on MDA-MB-231 cells; format: cell-based, human; conditions: for IC50: MTT, 72 h exposure, 0.1-100 µM; for fold more active against MDA-MB-231 than MCF-10A cells: ratio of IC50 values MCF-10A / MDA-MB-231
Procedure: as §4, §2, §3

[4] = test system: Enterococcus faecalis (ATCC 19433); assay: MIC/MBC broth dilution, E. faecalis; format: cell-based; conditions: broth dilution, 37 °C, 18 h
Procedure: as §1

human topoisomerase II = biological target: T1, human topoisomerase II (Homo sapiens, UniProt P11388); assay: hTopo II decatenation assay; format: biochemical; conditions: 10 and 50 µM, 2 h at 37 °C, kDNA substrate
T1 construct: purchased TopoGEN, Port Orange, FL
T1 sequence (P11388 whole entry): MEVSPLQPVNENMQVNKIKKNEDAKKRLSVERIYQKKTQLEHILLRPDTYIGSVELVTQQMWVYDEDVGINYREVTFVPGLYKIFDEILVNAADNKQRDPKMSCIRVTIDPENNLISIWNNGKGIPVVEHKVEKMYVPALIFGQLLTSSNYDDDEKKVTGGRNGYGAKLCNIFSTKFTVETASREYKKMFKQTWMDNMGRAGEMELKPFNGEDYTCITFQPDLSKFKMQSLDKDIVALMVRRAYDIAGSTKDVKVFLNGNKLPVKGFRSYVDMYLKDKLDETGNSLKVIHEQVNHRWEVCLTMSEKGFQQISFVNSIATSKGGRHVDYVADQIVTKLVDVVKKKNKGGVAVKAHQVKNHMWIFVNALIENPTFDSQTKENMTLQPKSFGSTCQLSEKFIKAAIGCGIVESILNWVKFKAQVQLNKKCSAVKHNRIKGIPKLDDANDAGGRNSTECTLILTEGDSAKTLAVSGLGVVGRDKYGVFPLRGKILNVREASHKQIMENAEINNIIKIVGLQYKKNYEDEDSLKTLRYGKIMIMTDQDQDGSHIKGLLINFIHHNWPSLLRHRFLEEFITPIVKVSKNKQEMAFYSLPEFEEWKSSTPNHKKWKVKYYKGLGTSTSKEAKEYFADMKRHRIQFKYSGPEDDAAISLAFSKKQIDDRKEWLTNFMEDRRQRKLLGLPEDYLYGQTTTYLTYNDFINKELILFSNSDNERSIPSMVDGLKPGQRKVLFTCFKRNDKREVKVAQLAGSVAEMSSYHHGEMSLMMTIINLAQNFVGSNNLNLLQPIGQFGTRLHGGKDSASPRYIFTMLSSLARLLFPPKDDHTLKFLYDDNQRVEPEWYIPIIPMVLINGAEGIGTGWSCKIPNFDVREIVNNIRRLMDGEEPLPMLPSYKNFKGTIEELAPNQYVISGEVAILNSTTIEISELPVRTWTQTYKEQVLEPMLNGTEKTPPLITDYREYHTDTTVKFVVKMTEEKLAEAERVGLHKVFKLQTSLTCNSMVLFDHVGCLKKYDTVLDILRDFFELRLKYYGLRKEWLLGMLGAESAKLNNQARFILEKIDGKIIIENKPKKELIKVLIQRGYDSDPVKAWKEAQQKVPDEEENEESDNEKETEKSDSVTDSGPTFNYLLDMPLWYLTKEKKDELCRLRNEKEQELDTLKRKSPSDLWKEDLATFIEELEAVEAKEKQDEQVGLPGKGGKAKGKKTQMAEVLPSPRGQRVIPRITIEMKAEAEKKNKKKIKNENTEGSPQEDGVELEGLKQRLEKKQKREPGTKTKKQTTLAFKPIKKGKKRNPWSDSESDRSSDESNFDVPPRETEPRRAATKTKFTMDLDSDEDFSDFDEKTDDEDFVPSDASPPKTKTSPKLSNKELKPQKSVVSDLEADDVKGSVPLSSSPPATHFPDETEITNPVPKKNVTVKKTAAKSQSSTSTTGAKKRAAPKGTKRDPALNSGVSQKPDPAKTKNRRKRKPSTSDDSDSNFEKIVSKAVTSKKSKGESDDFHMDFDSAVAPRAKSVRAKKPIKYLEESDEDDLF
Procedure: In Figure 4, only the results obtained at 50 μM concentration are reported (the same result was obtained at 10 μM) and as visible; under RANHC-V and -VI exposure, two bands related to the decatenation products at the bottom of the gel were detected (Figure 4, lanes 5 and 6), similarly to the CTRL reaction (Figure 4, lane 4).
Similarly, hTopoII decatenation assays were carried out incubating the kinetoplast DNA (kDNA) substrate with the hTopoII (TopoGEN, Port Orange, FL) and compounds RANHC-V and -VI or DMSO (CTRL) following the manufacturer’s procedures (TopoGEN, Port Orange, FL, USA), with some changes.
Figure 4 Human topoisomerase II decatenation assay. hTopo II was incubated with the vehicle alone (CTRL) or with the tested complexes RANHC-V and -VI at 50 µM for 2 h at 37 °C, using the kinetoplast DNA (kDNA) as the substrate. 1, linear DNA marker; 2, decatenated DNA marker; 3, kinetoplast DNA; 4, CTRL (DMSO); 5 and 6, Ru-NHC complexes RANHC-V and -VI (50 µM), respectively. The image is representative of three separate experiments.

| Structure (SMILES) | IC50 [1] [µM] | M.I.C. S. aureus [2] [µg/mL] | M.I.C. E. coli [3] [µg/mL] | IC50 (MCF-10A cells) [µM] | IC50 (MCF-7 cells) [µM] | IC50 (SH-SY5Y cells) [µM] | IC50 (MDA-MB-231 cells) [µM] | M.I.C. E. faecalis [4] [µg/mL] | inhibition of hTopo II activity (human topoisomerase II) | fold more active against MDA-MB-231 than MCF-10A cells (MDA-MB-231 cells) |
| --- | --- | --- | --- | --- | --- | --- | --- | --- | --- | --- |
| COC(Cn1ccn(C)[c]1=[Ru]([I])[I])c1ccccc1.Cc1ccc(C(C)C)cc1 (stereo not shown) [RANHC-II] | 214.8 ± 1.1 | 25 | 50 | > 100 | > 100 | > 100 | > 100 | 50 |  |  |
| COC(Cn1c(Cl)c(Cl)n(C)[c]1=[Ru]([Cl])[Cl])c1ccccc1.Cc1ccc(C(C)C)cc1 (stereo not shown) [RANHC-V] | 246.2 ± 1.2 | 25 | 50 | 79.5 ± 1.2 | 26.1 ± 0.9 | 48.4 ± 0.8 | 24.1 ± 0.7 | 70 | absence of any inhibitory activity | about 3.3 fold |
| COC(Cn1ccn(C)[c]1=[Ru]([Cl])[Cl])c1ccccc1.Cc1ccc(C(C)C)cc1 (stereo not shown) [RANHC-I] | 369.6 ± 1.1 | 25 | 50 | > 100 | > 100 | 90 ± 1.2 | > 100 | 50 |  |  |
| CN1C=CN2CC(c3ccccc3)[O+](C)[Ru]([Cl])=[C]12.Cc1ccc(C(C)C)cc1.F[P-](F)(F)(F)(F)F (stereo not shown) [RANHC-III] | 44.2 ± 1.2 | 25 | 25 | > 100 | > 100 | > 100 | > 100 | 50 |  |  |
| COC(Cn1ccn(C)[c]1=[Ru]1[O]C(=O)C(=O)[O]1)c1ccccc1.Cc1ccc(C(C)C)cc1 (stereo not shown) [RANHC-IV] | 512.3 ± 0.8 | 25 | 50 | > 100 | > 100 | 88.9 ± 0.9 | > 100 | 50 |  |  |
| COC(Cn1[c](=[Ru]([Cl])[Cl])n(C)c2ccccc21)c1ccccc1.Cc1ccc(C(C)C)cc1 (stereo not shown) [RANHC-VI] | 161.6 ± 1 | 25 | 25 | 90.7 ± 1.2 | 54.8 ± 1.1 | 66.9 ± 0.8 | 40.6 ± 1.1 | 50 | absence of any inhibitory activity | 2.2 fold |
